Experimental data from ChEMBL document CHEMBL1201862, “PubChem BioAssay data set” (2004).
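Protocol summary: plate cells (96-well), add compound at 5 concentrations, incubate 48 h, interpolate endpoints linearly. Here, GI50 denotes the concentration required for 50% inhibition of growth.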 Active and inactive are the calls of the source. Rule as the data show it: active = GI50 up to about 1.1 µM and inactive = higher.

Key:
Assay in all cases: NCI-60 cell line screen, 48 h
NCI-H226 = tested on: NCI-H226
SR = tested on: SR
SF-539 = tested on: SF-539
SW-620 = tested on: SW-620
HT-29 = tested on: HT-29
HCT-116 = tested on: HCT-116
SNB-19 = tested on: SNB-19
A549 = tested on: A549
COLO 205 = tested on: COLO 205
IGROV-1 = tested on: IGROV-1
ACHN = tested on: ACHN
K562 = tested on: K562
NCI-H460 = tested on: NCI-H460
SK-MEL-5 = tested on: SK-MEL-5
NCI/ADR-RES = tested on: NCI/ADR-RES
MOLT-4 = tested on: MOLT-4
KM12 = tested on: KM12
LOX IMVI = tested on: LOX IMVI
UACC-62 = tested on: UACC-62
EKVX = tested on: EKVX

Measured: GI50

Cc1ccc2ccccc2c1CSc1nc(N)nc2c1ncn2CC(C)C
inactive: NCI-H226 7.82 µM | SR 4.79 µM | SF-539 7.78 µM | SW-620 24.7 µM | HT-29 9.14 µM | HCT-116 9.82 µM | SNB-19 48.3 µM | A549 10.9 µM | COLO 205 6.4 µM | IGROV-1 51.2 µM | ACHN 16.4 µM | K562 6.41 µM | NCI-H460 14.2 µM | SK-MEL-5 7.05 µM | NCI/ADR-RES 21.8 µM | MOLT-4 4.73 µM | KM12 15.2 µM | LOX IMVI 34.8 µM | UACC-62 26.3 µM | EKVX 13.6 µM

CC(C)c1ccccc1[S+]([O-])c1ccccc1C(C)(C)O (stereo not given)
inactive: NCI-H226 21.3 µM | SR > 100 µM | SF-539 > 100 µM | SW-620 > 100 µM | HT-29 96.2 µM | HCT-116 > 100 µM | SNB-19 37.3 µM | A549 44.2 µM | COLO 205 > 100 µM | IGROV-1 > 100 µM | ACHN > 100 µM | K562 60.4 µM | NCI-H460 30.8 µM | SK-MEL-5 27.2 µM | NCI/ADR-RES 64.6 µM | MOLT-4 > 100 µM | KM12 30.8 µM | LOX IMVI 69.5 µM | UACC-62 > 100 µM | EKVX > 100 µM

CC[C@@]1(O)C(=O)OCc2c1cc1n(c2=O)Cc2cc3c(NC(=O)CN)cccc3nc2-1
active: NCI-H226 0.217 µM | SR < 0.01 µM | SF-539 < 0.0241 µM | HCT-116 0.441 µM | SNB-19 0.154 µM | A549 0.766 µM | ACHN 0.0521 µM | NCI-H460 < 0.0318 µM | SK-MEL-5 0.407 µM | NCI/ADR-RES 0.188 µM | MOLT-4 < 0.0199 µM | LOX IMVI 0.0575 µM | UACC-62 0.0506 µM
inactive: SW-620 2.07 µM | HT-29 2.69 µM | COLO 205 6.1 µM | IGROV-1 3.42 µM | K562 1.37 µM | KM12 2.96 µM | EKVX 16.6 µM

CN(C)c1ccc(/C=C/c2cc[n+](C)c3ccccc23)cc1
active: SR 0.698 µM | K562 0.418 µM
inactive: NCI-H226 2.53 µM | SF-539 5.56 µM | SW-620 2.44 µM | HT-29 2.04 µM | HCT-116 1.58 µM | SNB-19 2.34 µM | A549 3.86 µM | COLO 205 1.36 µM | IGROV-1 5.16 µM | ACHN 6.43 µM | NCI-H460 2.9 µM | SK-MEL-5 2.19 µM | NCI/ADR-RES > 100 µM | MOLT-4 3.4 µM | KM12 2.51 µM | LOX IMVI 3.48 µM | UACC-62 3.13 µM | EKVX 34.7 µM

OC(c1cc2ccccc2o1)c1cc2ccccc2s1 (stereo not given)
inactive: NCI-H226 > 10 µM | SR > 10 µM | SF-539 > 10 µM | SW-620 > 10 µM | HT-29 > 10 µM | HCT-116 > 10 µM | SNB-19 > 10 µM | A549 > 10 µM | COLO 205 > 10 µM | IGROV-1 > 10 µM | ACHN > 10 µM | K562 4.57 µM | NCI-H460 > 10 µM | SK-MEL-5 > 10 µM | NCI/ADR-RES > 10 µM | MOLT-4 > 10 µM | KM12 7.23 µM | LOX IMVI > 10 µM | UACC-62 > 10 µM | EKVX 7.23 µM

CC1(C)CCCCCCCCCC(C)(CCCCCCCCCCCCO)C1=O (stereo not given)
inactive: NCI-H226 9.84 µM | SR 55.3 µM | SF-539 16.6 µM | SW-620 18.3 µM | HT-29 16.9 µM | HCT-116 17.7 µM | SNB-19 13 µM | A549 16.1 µM | COLO 205 28.6 µM | IGROV-1 19.1 µM | ACHN 15 µM | K562 20 µM | NCI-H460 18.3 µM | SK-MEL-5 19.5 µM | NCI/ADR-RES 18.5 µM | MOLT-4 27.2 µM | KM12 17.1 µM | LOX IMVI 17.6 µM | UACC-62 18.3 µM | EKVX 19.3 µM

O=C(O)CCC[C@]1(O)O[C@@]2(CCCC2=O)[C@]2(O)CCC[C@@]21O
inactive: NCI-H226 > 100 µM | SR > 100 µM | SF-539 > 100 µM | SW-620 > 100 µM | HT-29 > 100 µM | HCT-116 > 100 µM | SNB-19 > 100 µM | A549 > 100 µM | COLO 205 > 100 µM | IGROV-1 > 100 µM | ACHN > 100 µM | K562 > 100 µM | NCI-H460 > 100 µM | SK-MEL-5 > 100 µM | NCI/ADR-RES > 100 µM | MOLT-4 > 100 µM | KM12 > 100 µM | LOX IMVI > 100 µM | UACC-62 > 100 µM | EKVX > 100 µM
